Source: the Kinase Knowledgebase extract (Sharma et al. 2016)

molecular target: EGFR (UniProt P00533); conditions: concentration not given here
Sequence (P00533 whole entry, looked up): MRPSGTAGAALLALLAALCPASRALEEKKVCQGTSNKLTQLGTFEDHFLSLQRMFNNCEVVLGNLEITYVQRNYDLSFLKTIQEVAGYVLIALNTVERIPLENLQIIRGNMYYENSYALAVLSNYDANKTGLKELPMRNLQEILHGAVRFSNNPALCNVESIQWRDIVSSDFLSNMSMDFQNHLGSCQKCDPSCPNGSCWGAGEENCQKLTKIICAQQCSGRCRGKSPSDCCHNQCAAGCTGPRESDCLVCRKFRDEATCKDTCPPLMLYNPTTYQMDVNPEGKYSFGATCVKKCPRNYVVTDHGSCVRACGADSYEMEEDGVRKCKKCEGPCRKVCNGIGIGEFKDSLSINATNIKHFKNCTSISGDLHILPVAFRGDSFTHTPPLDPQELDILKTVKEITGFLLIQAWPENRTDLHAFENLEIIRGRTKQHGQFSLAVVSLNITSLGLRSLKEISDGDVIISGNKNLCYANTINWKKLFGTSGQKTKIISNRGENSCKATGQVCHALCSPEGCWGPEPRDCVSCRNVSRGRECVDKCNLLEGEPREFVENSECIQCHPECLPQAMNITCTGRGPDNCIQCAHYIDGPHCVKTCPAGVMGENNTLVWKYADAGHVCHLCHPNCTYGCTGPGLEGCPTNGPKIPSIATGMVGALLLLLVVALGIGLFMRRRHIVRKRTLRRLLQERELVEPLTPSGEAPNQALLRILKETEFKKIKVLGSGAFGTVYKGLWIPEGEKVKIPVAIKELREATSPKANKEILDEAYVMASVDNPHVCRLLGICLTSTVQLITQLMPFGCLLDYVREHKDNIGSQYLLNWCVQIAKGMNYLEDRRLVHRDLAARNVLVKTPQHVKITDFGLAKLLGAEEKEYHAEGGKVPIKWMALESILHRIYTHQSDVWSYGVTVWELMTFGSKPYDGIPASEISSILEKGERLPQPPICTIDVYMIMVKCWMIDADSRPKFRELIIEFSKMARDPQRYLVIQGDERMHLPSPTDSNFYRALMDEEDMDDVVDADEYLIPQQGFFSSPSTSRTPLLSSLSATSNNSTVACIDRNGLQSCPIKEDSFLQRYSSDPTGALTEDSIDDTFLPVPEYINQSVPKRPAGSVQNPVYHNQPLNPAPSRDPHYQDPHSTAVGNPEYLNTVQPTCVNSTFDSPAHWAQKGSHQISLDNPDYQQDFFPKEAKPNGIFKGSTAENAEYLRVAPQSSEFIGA

Row | inhibition [%] | Structure (SMILES)
1 | 10 | COc1cc2ncnc(Nc3cccc(Cl)c3)c2cc1OC
2 | < 50 | COc1cc(N)c(C(=O)Nc2cccc(Br)c2)c(OC)c1OC
3 | < 50 | COc1cc(N)c(C(=N)Nc2ccc(F)c(Cl)c2)cc1OC

molecular target: EGFR (human) (UniProt P00533); conditions: a431
Sequence (P00533 whole entry, looked up): as above

Row | IC50 [µM] | Structure (SMILES)
4 | 130 | COc1cc2c(cc1OC)C(Nc1cccc(Br)c1)=NC(C)(C)N2
5 | > 1000 | COc1cc(N)c(C(=O)NC2CCCCC2)cc1OC
6 | 200 | COc1cc2c(cc1OC)C(Nc1cccc(Cl)c1)=NC(C)(C)N2
7 | 340 | COc1cccc(NC(=N)c2cc(OC)c(OC)cc2N)c1
8 | 320 | COc1cccc(NC2=NC(C)(C)Nc3cc(OC)c(OC)cc32)c1
9 | 920 | COc1cc(N)c(C(=O)Nc2cccc(Br)c2)c(OC)c1OC
10 | 470 | COc1cc(N)c(C(=O)Nc2cccc(C(F)(F)F)c2)cc1OC
11 | 90 | COc1cc2c(cc1OC)C(Nc1ccc(F)c(Cl)c1)=NC(C)(C)N2
12 | > 1000 | COc1cc(N)c(C(=O)Nc2ccncc2)cc1OC
13 | 200 | COc1cccc(NC(=O)c2cc(OC)c(OC)cc2N)c1
14 | > 1000 | COc1cc(N)c(C(=O)Nc2ccc(F)c(Cl)c2)cc1OC
15 | 300 | COc1cc(N)c(C(=N)Nc2cccc(Br)c2)cc1OC
16 | 200 | COc1cc(N)c(C(=N)Nc2ccc(F)c(Cl)c2)cc1OC
17 | 340 | COc1cc(N)c(C(=O)Nc2cccc(Br)c2)cc1OC
18 | > 1000 | COc1cc(N)c(C(=O)Nc2ccccn2)cc1OC
19 | > 1000 | COc1cc(N)c(C(=O)NC(C)c2ccccc2)cc1OC (stereo unspecified)
20 | 460 | COc1cc(N)c(C(=N)Nc2cccc(Cl)c2)cc1OC
21 | > 1000 | COc1cc(N)c(C(=O)Nc2cccnc2)cc1OC
